Patent US20260000684A1, “CANNABINOID COMPOSITIONS AGAINST CANCER, THEIR IDENTIFICATION AND PERSONALIZATION OF CANNABIS-BASED CANCER THERAPY” (UNIVERZA V MARIBORU, priority 2022, published 2026)

Tests used:
CaCo2 = test: Cell viability/proliferation; type: cell-based; settings: FIG. 10, preliminary analysis
Excerpt: (§1) Example 5: In a preliminary analysis, the inventors investigated the effect of 16 cannabinoid compounds (Δ9-THCV-C3, Δ9-THCVA-C3 A, Δ9-THCA-C5 A, Δ9-THC-C5, Δ8-THC-C5, CBN-C5, CBL-C5, CBLA-C5 A, (E)-CBG-C5, (E)-CBGA-C5 A, CBD-C5, CBDV-C3, CBDVA-C3, CBDA-C5, CBC-C5, and CBCA-C5 A) on cell viability/proliferation in two colorectal carcinoma cell lines (HCT116 and CaCo2) (FIG. 10).

HCT116 = test: Cell viability/proliferation; type: cell-based; settings: FIG. 10, preliminary analysis
Excerpt: as §1

[1] = tested on: human A375, SK-MEL-28, and CHL-1 melanoma cell lines; settings: A375, SK-MEL-28, CHL-1; Armstrong et al.; cited from earlier work
[2] = tested on: melanoma cell lines (COLO38 and OCM-1); settings: CB2 and CB1 expressing melanoma cell lines COLO38 and OCM-1; cited from earlier work

Compound	effect in reducing cell viability (CaCo2)	effect in reducing cell viability (HCT116)	effect of treatment on melanoma cell lines [1]	viability [2]
CCCCCc1cc(O)c2c(c1)OC(C)(CCC=C(C)C)C=C2 (racemic) [CBC, (±)-cannabichromene]	strongest effect in reducing cell viability	strongest effect in reducing cell viability		
CCCCCc1cc(O)c2c(c1)OC(C)(C)[C@@H]1CC=C(C)C[C@@H]21 (relative stereo) [Δ8THC, (−)-Δ^8-trans-(6aR,10aR)-Δ^8-tetrahydrocannabinol]	strongest effect in reducing cell viability	strongest effect in reducing cell viability		
CCCCCc1cc(O)c2c(c1)OC(C)(C)c1ccc(C)cc1-2 [CBN, cannabinol]	strongest effect in reducing cell viability	strongest effect in reducing cell viability		
(−)-cannabidiol [CBD, reference compound]	strongest effect in reducing cell viability	strongest effect in reducing cell viability		
CCCCCc1cc(O)c2c(c1)OC(C)(C)[C@@H]1CCC(C)=C[C@@H]21 [Δ9THC, Δ^9-tetrahydrocannabinol, reference compound]	strongest effect in reducing cell viability	strongest effect in reducing cell viability	activation of autophagy, loss of cell viability, and activation of apoptosis	
Cc1c(C(=O)c2cccc3ccccc23)c2cccc3c2n1[C@H](CN1CCOCC1)CO3 [WIN55,212-2]				reduce viability in a CB1/CB2-independent manner
CCCCCc1cc(O)c(C/C=C(\C)CCC=C(C)C)c(O)c1 [CBG, cannabigerol]	strongest effect in reducing cell viability	strongest effect in reducing cell viability		
